Measurements published in ChEMBL document CHEMBL5678810.

Key:
[1] = molecular target: Ribosomal protein S6 kinase alpha-1 (Homo sapiens) (UniProt Q15418); test: Inhibition of RSK1 domain1 Activation Loop labeling site in human HEL cell lysate at 10 uM by KiNativ profiling analysis relative to control; type: subcellular
[2] = molecular target: Serine/threonine-protein kinase MRCK alpha (Homo sapiens) (UniProt Q5VT25); test: Inhibition of T7 bacteriophage fused human MRCKA at 10 uM by KINOMEscan analysis relative to control
[3] = molecular target: Tyrosine-protein kinase receptor UFO (Homo sapiens) (UniProt P30530); test: Inhibition of T7 bacteriophage fused human AXL at 10 uM by KINOMEscan analysis relative to control
[4] = tested on: Hepatocyte growth factor receptor (Homo sapiens), P08581 [M1250T]; test: Inhibition of T7 bacteriophage fused human MET M1250T mutant at 10 uM by KINOMEscan analysis relative to control; values are per cent of control
[5] = molecular target: Mitogen-activated protein kinase 7 (Homo sapiens, UniProt Q13164); test: Inhibition of T7 bacteriophage fused human ERK5 at 10 uM by KINOMEscan analysis relative to control; values are per cent of control
[6] = tested on: Hepatocyte growth factor receptor (Homo sapiens), P08581 [Y1235D]; test: Inhibition of T7 bacteriophage fused human MET Y1235D mutant at 10 uM by KINOMEscan analysis relative to control
[7] = molecular target: Cyclin-dependent kinase 15 (Homo sapiens) (UniProt Q96Q40); test: Inhibition of T7 bacteriophage fused human PFTAIRE2 at 10 uM by KINOMEscan analysis relative to control
[8] = tested on: Tyrosine-protein kinase ABL1 (Homo sapiens), P00519 [E255K]; test: Inhibition of T7 bacteriophage fused human phosphorylated ABL1 E255K mutant at 10 uM by KINOMEscan analysis relative to control
[9] = tested on: Epidermal growth factor receptor (Homo sapiens), P00533 [G719S]; test: Inhibition of T7 bacteriophage fused human EGFR G719S mutant at 10 uM by KINOMEscan analysis relative to control
[10] = molecular target: Casein kinase I isoform delta (Homo sapiens) (UniProt P48730); test: Inhibition of T7 bacteriophage fused human CSNK1D at 10 uM by KINOMEscan analysis relative to control; values are per cent of control
[11] = molecular target: Mitogen-activated protein kinase 9 (Homo sapiens) (UniProt P45984); test: Inhibition of T7 bacteriophage fused human JNK2 at 10 uM by KINOMEscan analysis relative to control
[12] = molecular target: Cyclin-dependent kinase 17 (Homo sapiens) (UniProt Q00537); test: Inhibition of T7 bacteriophage fused human PCTK2 at 10 uM by KINOMEscan analysis relative to control
[13] = molecular target: Dual specificity tyrosine-phosphorylation-regulated kinase 2 (Homo sapiens) (UniProt Q92630); test: Inhibition of T7 bacteriophage fused human DYRK2 at 10 uM by KINOMEscan analysis relative to control; values are per cent of control
[14] = molecular target: Tyrosine-protein kinase ZAP-70 (Homo sapiens) (UniProt P43403); test: Inhibition of T7 bacteriophage fused human ZAP70 at 10 uM by KINOMEscan analysis relative to control
[15] = tested on: Mast/stem cell growth factor receptor Kit (Homo sapiens), P10721 [V559D,V654A]; test: Inhibition of T7 bacteriophage fused human KIT V559D/V654A mutant at 10 uM by KINOMEscan analysis relative to control
[16] = molecular target: Leukocyte tyrosine kinase receptor (Homo sapiens) (UniProt P29376); test: Inhibition of T7 bacteriophage fused human LTK at 10 uM by KINOMEscan analysis relative to control; values are per cent of control
[17] = molecular target: Serine/threonine-protein kinase 24 (Homo sapiens) (UniProt Q9Y6E0); test: Inhibition of T7 bacteriophage fused human MST3 at 10 uM by KINOMEscan analysis relative to control; values are per cent of control
[18] = molecular target: Serine/threonine-protein kinase PLK4 (Homo sapiens) (UniProt O00444); test: Inhibition of T7 bacteriophage fused human PLK4 at 10 uM by KINOMEscan analysis relative to control
[19] = molecular target: Proto-oncogene tyrosine-protein kinase ROS (Homo sapiens) (UniProt P08922); test: Inhibition of T7 bacteriophage fused human ROS1 at 10 uM by KINOMEscan analysis relative to control
[20] = tested on: Mast/stem cell growth factor receptor Kit (Homo sapiens), P10721 [V559D,T670I]; test: Inhibition of T7 bacteriophage fused human KIT V559D/T670I mutant at 10 uM by KINOMEscan analysis relative to control; values are per cent of control
[21] = molecular target: Serine/threonine-protein kinase N1 (Homo sapiens) (UniProt Q16512); test: Inhibition of T7 bacteriophage fused human PKN1 at 10 uM by KINOMEscan analysis relative to control
[22] = tested on: Phosphatidylinositol 4,5-bisphosphate 3-kinase catalytic subunit alpha isoform (Homo sapiens), P42336 [M1043I]; test: Inhibition of T7 bacteriophage fused human PIK3CA M1043I mutant at 10 uM by KINOMEscan analysis relative to control
[23] = molecular target: Serine/threonine-protein kinase PRP4 homolog (Homo sapiens) (UniProt Q13523); test: Inhibition of T7 bacteriophage fused human PRP4 at 10 uM by KINOMEscan analysis relative to control
[24] = molecular target: Atypical kinase COQ8B, mitochondrial (Homo sapiens) (UniProt Q96D53); test: Inhibition of T7 bacteriophage fused human ADCK4 at 10 uM by KINOMEscan analysis relative to control
[25] = molecular target: Serine/threonine-protein kinase MRCK gamma (Homo sapiens) (UniProt Q6DT37); test: Inhibition of T7 bacteriophage fused human DMPK2 at 10 uM by KINOMEscan analysis relative to control
[26] = molecular target: Cyclin-dependent kinase 2 (Homo sapiens) (UniProt P24941); test: Inhibition of T7 bacteriophage fused human CDK2 at 10 uM by KINOMEscan analysis relative to control
[27] = molecular target: Serine/threonine-protein kinase TNNI3K (Homo sapiens) (UniProt Q59H18); test: Inhibition of T7 bacteriophage fused human TNNI3K at 10 uM by KINOMEscan analysis relative to control
[28] = molecular target: Dual specificity tyrosine-phosphorylation-regulated kinase 1B (Homo sapiens) (UniProt Q9Y463); test: Inhibition of T7 bacteriophage fused human DYRK1B at 10 uM by KINOMEscan analysis relative to control; values are per cent of control
[29] = tested on: Phosphatidylinositol 4,5-bisphosphate 3-kinase catalytic subunit alpha isoform (Homo sapiens), P42336 [I800L]; test: Inhibition of T7 bacteriophage fused human PIK3CA I800L mutant at 10 uM by KINOMEscan analysis relative to control
Sequence of Phosphatidylinositol 4,5-bisphosphate 3-kinase catalytic subunit alpha isoform (Homo sapiens), P42336 [I800L] (P42336 whole entry I800L, the tested form may be a part, canonical isoform): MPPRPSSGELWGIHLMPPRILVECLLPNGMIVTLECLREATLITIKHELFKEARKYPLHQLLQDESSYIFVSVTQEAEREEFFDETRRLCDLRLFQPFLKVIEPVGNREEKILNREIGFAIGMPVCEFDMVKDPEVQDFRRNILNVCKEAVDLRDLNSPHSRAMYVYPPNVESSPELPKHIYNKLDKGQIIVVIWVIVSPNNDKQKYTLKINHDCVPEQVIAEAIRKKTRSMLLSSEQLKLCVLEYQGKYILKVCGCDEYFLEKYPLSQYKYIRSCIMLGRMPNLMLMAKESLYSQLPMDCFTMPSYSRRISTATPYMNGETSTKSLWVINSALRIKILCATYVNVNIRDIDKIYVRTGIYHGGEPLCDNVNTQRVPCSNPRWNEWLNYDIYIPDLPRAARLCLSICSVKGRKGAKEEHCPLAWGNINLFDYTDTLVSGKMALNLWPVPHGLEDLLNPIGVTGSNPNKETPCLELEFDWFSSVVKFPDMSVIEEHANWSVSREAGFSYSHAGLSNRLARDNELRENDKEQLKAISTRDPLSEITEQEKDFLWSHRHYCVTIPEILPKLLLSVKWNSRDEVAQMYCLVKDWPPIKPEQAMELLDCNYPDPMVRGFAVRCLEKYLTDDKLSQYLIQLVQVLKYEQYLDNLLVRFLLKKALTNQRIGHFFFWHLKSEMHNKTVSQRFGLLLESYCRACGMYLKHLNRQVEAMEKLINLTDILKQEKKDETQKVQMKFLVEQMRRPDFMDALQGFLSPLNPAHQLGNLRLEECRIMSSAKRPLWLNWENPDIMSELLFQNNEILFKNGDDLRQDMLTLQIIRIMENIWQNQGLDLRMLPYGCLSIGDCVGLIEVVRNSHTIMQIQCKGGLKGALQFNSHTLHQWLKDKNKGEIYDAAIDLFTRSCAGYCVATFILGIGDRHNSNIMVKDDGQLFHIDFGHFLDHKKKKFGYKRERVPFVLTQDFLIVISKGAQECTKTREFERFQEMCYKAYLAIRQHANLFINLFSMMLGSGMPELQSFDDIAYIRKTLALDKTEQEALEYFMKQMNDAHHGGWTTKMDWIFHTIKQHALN

Sequence of Atypical kinase COQ8B, mitochondrial (Homo sapiens) (Q96D53 whole entry, the tested form may be a part): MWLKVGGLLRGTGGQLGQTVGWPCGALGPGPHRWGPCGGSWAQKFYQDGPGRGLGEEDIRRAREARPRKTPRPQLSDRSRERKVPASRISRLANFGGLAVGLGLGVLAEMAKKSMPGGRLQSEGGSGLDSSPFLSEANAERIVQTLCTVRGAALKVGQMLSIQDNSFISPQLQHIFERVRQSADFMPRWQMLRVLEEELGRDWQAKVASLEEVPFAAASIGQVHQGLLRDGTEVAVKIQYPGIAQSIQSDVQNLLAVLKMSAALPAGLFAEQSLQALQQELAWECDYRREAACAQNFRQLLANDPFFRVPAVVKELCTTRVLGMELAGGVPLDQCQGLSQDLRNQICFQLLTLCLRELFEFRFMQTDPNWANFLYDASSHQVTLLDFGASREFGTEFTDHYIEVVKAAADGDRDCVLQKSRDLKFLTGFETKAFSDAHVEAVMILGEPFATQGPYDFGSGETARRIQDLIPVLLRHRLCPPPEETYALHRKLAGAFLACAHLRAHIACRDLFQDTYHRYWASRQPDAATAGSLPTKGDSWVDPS
Sequence of Tyrosine-protein kinase ZAP-70 (Homo sapiens) (P43403 whole entry, the tested form may be a part): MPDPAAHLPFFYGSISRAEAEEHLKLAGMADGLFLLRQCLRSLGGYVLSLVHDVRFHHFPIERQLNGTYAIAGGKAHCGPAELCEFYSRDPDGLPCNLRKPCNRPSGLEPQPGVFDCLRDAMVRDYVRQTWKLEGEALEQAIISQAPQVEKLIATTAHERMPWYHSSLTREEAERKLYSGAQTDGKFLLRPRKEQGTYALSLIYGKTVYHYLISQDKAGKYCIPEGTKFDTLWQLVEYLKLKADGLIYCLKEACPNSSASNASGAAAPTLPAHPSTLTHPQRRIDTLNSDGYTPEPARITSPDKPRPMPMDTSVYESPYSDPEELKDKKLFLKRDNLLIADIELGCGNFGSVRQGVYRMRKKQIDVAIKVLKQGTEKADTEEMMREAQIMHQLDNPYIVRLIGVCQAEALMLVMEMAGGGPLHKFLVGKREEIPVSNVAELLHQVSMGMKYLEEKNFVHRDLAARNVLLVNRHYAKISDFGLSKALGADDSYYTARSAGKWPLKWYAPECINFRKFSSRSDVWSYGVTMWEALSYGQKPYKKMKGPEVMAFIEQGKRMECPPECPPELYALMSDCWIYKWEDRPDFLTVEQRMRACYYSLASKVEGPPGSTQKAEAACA
Sequence of Proto-oncogene tyrosine-protein kinase ROS (Homo sapiens) (P08922 whole entry, the tested form may be a part): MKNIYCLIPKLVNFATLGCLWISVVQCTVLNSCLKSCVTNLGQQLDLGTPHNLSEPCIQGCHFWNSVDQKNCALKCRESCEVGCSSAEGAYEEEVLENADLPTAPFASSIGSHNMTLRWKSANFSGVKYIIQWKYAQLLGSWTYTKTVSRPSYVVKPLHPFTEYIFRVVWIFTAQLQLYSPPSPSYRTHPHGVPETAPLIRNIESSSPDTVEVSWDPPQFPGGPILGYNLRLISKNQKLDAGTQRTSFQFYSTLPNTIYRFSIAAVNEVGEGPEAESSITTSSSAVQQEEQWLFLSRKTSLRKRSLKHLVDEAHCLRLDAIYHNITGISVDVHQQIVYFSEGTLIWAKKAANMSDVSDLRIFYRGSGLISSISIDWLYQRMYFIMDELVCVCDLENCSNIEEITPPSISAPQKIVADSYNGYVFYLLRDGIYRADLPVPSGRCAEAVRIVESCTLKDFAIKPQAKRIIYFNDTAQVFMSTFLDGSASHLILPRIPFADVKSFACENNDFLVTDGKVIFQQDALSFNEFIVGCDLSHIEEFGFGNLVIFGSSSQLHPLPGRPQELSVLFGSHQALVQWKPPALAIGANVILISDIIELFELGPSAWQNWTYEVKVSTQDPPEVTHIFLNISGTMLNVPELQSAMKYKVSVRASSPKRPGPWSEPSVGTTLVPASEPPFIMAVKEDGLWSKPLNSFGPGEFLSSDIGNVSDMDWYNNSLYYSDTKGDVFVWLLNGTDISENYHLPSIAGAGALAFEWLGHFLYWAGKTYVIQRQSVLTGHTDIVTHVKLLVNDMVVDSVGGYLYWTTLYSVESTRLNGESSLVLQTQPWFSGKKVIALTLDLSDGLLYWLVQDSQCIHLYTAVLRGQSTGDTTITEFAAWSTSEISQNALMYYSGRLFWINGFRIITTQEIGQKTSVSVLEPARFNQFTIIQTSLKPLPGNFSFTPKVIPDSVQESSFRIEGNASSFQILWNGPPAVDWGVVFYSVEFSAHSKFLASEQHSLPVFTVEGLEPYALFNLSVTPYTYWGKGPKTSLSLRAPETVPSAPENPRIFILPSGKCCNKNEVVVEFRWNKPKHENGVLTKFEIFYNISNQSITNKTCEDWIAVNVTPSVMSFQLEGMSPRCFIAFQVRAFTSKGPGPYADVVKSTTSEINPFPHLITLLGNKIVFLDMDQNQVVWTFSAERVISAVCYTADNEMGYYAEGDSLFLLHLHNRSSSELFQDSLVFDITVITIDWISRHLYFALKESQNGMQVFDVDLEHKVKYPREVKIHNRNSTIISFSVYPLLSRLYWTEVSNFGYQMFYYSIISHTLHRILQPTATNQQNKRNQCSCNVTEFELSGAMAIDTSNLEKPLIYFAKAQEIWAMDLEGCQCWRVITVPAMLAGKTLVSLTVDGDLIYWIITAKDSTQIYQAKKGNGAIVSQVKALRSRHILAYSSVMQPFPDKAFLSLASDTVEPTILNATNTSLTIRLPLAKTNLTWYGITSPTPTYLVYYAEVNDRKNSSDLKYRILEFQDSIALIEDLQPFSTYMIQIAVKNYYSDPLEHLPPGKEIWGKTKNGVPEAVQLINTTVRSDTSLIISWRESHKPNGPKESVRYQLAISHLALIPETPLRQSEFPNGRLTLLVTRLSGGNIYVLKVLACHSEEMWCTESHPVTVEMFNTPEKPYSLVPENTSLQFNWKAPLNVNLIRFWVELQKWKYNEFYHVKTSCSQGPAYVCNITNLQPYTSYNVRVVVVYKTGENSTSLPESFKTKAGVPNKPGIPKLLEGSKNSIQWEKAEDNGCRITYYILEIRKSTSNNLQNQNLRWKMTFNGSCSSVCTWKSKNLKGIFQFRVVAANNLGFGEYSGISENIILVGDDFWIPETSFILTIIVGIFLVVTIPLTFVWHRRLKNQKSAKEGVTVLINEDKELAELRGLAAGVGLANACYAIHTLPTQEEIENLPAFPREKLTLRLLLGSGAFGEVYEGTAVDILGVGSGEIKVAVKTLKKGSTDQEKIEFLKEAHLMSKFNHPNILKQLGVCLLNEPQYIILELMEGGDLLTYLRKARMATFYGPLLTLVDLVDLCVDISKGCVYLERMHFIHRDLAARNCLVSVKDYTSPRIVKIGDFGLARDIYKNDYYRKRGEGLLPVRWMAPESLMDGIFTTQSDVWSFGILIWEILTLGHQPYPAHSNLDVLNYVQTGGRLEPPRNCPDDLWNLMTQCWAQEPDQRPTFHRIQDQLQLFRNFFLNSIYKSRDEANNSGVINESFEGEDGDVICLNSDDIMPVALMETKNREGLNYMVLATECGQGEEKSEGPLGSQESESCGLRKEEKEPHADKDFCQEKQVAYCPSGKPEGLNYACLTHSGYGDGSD
Sequence of Serine/threonine-protein kinase 24 (Homo sapiens) (Q9Y6E0 whole entry, looked up, the tested form may be a part): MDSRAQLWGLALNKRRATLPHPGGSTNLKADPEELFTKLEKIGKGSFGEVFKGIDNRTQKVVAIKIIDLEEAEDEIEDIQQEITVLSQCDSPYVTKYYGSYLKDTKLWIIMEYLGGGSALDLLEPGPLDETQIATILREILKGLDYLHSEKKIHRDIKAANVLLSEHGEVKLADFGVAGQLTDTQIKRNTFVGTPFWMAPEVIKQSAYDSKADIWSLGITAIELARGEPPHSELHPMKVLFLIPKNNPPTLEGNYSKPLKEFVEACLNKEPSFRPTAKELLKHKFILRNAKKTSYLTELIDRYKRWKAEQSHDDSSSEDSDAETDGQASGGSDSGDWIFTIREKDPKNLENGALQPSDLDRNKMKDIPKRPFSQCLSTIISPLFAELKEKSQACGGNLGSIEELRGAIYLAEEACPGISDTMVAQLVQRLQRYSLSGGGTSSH

COc1cc(C(=O)N2CCC(N3CCN(C)CC3)CC2)ccc1Nc1ncc2c(n1)N(C1CCCC1)c1ccccc1C(=O)N2C
inhibition [1]: 0.2%

COc1cc(N2CCC(N3CCN(C)CC3)CC2)ccc1Nc1ncc2c(n1)N(C)c1ccccc1C(=O)N2C
inhibition [2]: 100% | inhibition [3]: 100% | residual activity [4]: 96% | residual activity [5]: 0.05% | inhibition [6]: 100% | inhibition [7]: 100% | inhibition [8]: 80% | inhibition [9]: 86% | residual activity [10]: 81% | inhibition [11]: 94% | inhibition [12]: 83% | residual activity [13]: 76% | inhibition [14]: 79% | inhibition [15]: 100% | residual activity [16]: 32% | residual activity [17]: 87% | inhibition [18]: 0% | inhibition [19]: 12% | residual activity [20]: 81% | inhibition [21]: 100% | inhibition [22]: 65% | inhibition [23]: 93% | inhibition [24]: 94% | inhibition [25]: 100% | inhibition [26]: 100% | inhibition [27]: 100% | residual activity [28]: 94% | inhibition [29]: 38%
